From paper PMC11123841, “Discovery and Synthesis of Hydroxy-L-Proline Blockers of the Neutral Amino Acid Transporters SLC1A4 (ASCT1) and SLC1A5 (ASCT2)” (Molecules, 2024)

What was measured:
Format in all cases: cell-based
[1] = target: T1, SLC3A2 (4f2) injected alone (Homo sapiens, UniProt P08195); test: [3H]D-serine uptake in oocytes; conditions: 10 µM BPOHP
T1 construct: expressed in transfected cells; host or cells: Xenopus laevis oocytes (cRNA injection)
T1 sequence (P08195 1-529): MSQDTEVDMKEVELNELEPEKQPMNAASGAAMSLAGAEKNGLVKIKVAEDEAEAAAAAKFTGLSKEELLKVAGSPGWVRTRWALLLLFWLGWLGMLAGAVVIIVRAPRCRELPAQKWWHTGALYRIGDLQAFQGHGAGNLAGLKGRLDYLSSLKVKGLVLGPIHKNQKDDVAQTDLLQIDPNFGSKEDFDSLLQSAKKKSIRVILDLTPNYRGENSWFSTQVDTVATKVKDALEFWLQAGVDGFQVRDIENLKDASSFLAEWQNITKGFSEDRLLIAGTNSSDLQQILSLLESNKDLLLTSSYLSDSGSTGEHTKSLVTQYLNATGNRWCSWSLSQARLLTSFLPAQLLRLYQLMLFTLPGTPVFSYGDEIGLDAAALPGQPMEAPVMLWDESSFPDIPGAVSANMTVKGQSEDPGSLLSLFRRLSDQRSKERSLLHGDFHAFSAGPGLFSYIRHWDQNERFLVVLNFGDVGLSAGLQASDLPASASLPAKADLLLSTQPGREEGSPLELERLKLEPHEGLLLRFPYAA
Experimental: Figure SM-3A. Representative traces showing 100µM L-Ala currents and co-application of 3µM BPOHP (black bar) with no effect on SLC38A neutral amino acid transporters SLC38A1(ATA1), SLC38A2 (ATA2), and SLC38A4 (ATA3). SM-3B. [3H]D-serine uptake (100nM) in SLC1A4 is blocked by BPOHP (10µM), however, [ 3H]D-serine uptake by co -expressed SLC7A10+SLC3A2 (asc1+4F2) nor SLC3A2 (4f2) expressed (injected) alone was blocked by application of 10µM BPOHP.
Figure SM-4. Tosic acid approach to compound 12c. (i) Tosylic acid 0.1M in THF 60◦C. (ii) Phenol and NaH in DCM, 40◦C under argon balloon (iii) 10% Pd/C (10% w/eq.), H2, MeOH, H2O, […]
S.Figure 3 A. Representative traces showing 100uM L-Ala currents and co-application of 3uM BPOHP (black bar) with no effect on SLC38A neutral amino acid transporters SLC38A1(ATA1), SLC38A2 (ATA2), and SLC38A4 (ATA3). B. [3H]D-serine uptake (100nM) in SLC1A4 is blocked by BPOHP (10uM), but not the H3D-serine uptake by […]

SLC1A4 = target: T2, SLC1A4 (Homo sapiens, UniProt P43007); test: [3H]L-alanine heteroexchange (trans-stimulation) in preloaded oocytes; conditions: 3 µM BPOHP, 1 mM L-alanine
T2 construct: expressed in transfected cells; host or cells: Xenopus laevis oocytes (cRNA injection)
T2 sequence (P43007 1-532): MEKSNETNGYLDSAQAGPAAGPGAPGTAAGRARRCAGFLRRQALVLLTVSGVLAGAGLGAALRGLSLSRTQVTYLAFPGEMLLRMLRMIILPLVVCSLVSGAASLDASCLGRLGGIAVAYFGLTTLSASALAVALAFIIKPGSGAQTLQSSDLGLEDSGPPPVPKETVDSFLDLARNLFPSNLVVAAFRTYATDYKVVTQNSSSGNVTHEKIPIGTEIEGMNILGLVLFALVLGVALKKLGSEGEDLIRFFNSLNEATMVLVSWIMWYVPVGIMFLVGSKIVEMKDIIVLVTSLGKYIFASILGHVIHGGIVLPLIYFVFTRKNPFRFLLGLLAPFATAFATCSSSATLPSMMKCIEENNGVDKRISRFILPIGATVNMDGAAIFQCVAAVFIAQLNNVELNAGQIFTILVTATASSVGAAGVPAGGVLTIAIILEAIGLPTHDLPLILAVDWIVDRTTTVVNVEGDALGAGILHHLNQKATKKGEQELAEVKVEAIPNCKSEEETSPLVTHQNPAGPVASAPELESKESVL
Experimental: (§1) Uptake was halted by washing 3 times with 4 °C ND96 buffer. Oocytes were then lysed in 0.1% Triton X-100, and radioactivity was counted via liquid scintillation. Dose response curves were generated by fitting fractional inhibition (I) to the expression I = Imax × [inhibitor]/([inhibitor] + IC50).

SLC1A5 = target: T3, SLC1A5 (Mus musculus, UniProt P51912); test: as above; conditions: 3 µM BPOHP, 1 mM L-alanine
T3 construct: expressed in transfected cells; host or cells: Xenopus laevis oocytes (cRNA injection)
T3 sequence (P51912 1-553): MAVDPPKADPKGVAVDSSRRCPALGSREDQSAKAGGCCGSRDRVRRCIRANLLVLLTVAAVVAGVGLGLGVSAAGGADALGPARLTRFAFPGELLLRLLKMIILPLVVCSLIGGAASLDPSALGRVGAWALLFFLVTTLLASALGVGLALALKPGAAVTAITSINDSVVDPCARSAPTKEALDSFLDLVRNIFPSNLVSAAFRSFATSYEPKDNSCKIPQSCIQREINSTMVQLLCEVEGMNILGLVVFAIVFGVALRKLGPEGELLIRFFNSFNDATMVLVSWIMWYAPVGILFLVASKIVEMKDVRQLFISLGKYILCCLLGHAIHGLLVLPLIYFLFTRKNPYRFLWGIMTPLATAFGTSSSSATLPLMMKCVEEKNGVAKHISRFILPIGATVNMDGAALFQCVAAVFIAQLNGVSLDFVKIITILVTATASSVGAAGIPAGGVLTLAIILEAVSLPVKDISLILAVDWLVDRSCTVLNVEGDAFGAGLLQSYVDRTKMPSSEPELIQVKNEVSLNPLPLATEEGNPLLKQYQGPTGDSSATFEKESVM
Experimental: as §1

Structure (SMILES): O=C(O)[C@H]1NC[C@@H](OCc2ccc(-c3ccccc3)cc2)[C@@H]1O [14e]
- effect on [3H]D-serine uptake [1]: no effect
- [3H]L-alanine exchange (SLC1A4): No exchange was detected
- [3H]L-alanine exchange (SLC1A5): No exchange was detected
